Patent publication US9868692B2, “Compounds and compositions for intracellular delivery of therapeutic agents” (MODERNATX, Inc., priority 2015, dated 2018)

How the values were obtained:
[1] = Lipid clearance: % dose remaining in liver after administration of Luc formulations; assay type: in vivo, mice; conditions: Table 3D
[2] = Particle size, polydispersity index (and zeta potential) of nanoparticle compositions, Zetasizer Nano ZS; assay type: physicochemical; conditions: Table 1A formulations
From the text: Nanoparticle compositions may be characterized by a variety of methods. For example, microscopy (e.g., transmission electron microscopy or scanning electron microscopy) may be used to examine the morphology and size distribution of a nanoparticle composition. Dynamic light scattering or potentiometry (e.g., potentiometric titrations) may be used to measure zeta potentials. Dynamic light scattering may also be utilized to determine particle sizes. Instruments such as the Zetasizer Nano ZS (Malvern Instruments Ltd, Malvern, Worcestershire, UK) may also be used to measure multiple characteristics of a nanoparticle composition, such as particle size, polydispersity index, and zeta potential.
A Zetasizer Nano ZS (Malvern Instruments Ltd, Malvern, Worcestershire, UK) can be used to determine the particle size, the polydispersity index (PDI) and the zeta potential of the nanoparticle compositions in 1×PBS in determining particle size and 15 mM PBS in determining zeta potential.

[3] = Encapsulation efficiency of RNA, QUANT-IT RIBOGREEN RNA assay; assay type: physicochemical; conditions: Table 1A formulations
From the text: The efficiency of encapsulation of a therapeutic and/or prophylactic describes the amount of therapeutic and/or prophylactic that is encapsulated or otherwise associated with a nanoparticle composition after preparation, relative to the initial amount provided. The encapsulation efficiency is desirably high (e.g., close to 100%). The encapsulation efficiency may be measured, for example, by comparing the amount of therapeutic and/or prophylactic in a solution containing the nanoparticle composition before and after breaking up the nanoparticle composition with one or more organic solvents or detergents. Fluorescence may be used to measure the amount of free therapeutic and/or prophylactic (e.g., RNA) in a solution. For the nanoparticle compositions described herein, the encapsulation efficiency of a therapeutic and/or prophylactic may be at least 50%, for example 50%, 55%, 60%, 65%, 70%, 75%, 80%, 85%, 90%, 91%, 92%, 93%, 94%, 95%, 96%, 97%, 98%, 99%, or 100%. In some embodiments, the encapsulation efficiency may be at least 80%. In certain embodiments, the encapsulation efficiency may be at least 90%.
For nanoparticle compositions including an RNA, a QUANT-IT™ RIBOGREEN® RNA assay (Invitrogen Corporation Carlsbad, Calif.) can be used to evaluate the encapsulation of an RNA by the nanoparticle composition. The samples are diluted to a concentration of approximately 5 μg/mL in a TE buffer solution (10 mM Tris-HCl, 1 mM EDTA, pH 7.5). 50 μL of the diluted samples are transferred to a polystyrene 96 well plate and either 50 μL of TE buffer or 50 μL of a 2% Triton X-100 solution is added to the wells. The plate is incubated at a temperature of 37° C. for 15 minutes. The RIBOGREEN® reagent is diluted 1:100 in TE buffer, and 100 μL of this solution is added to each well. The fluorescence intensity can be measured using a fluorescence plate reader (Wallac Victor 1420 Multilablel Counter; Perkin Elmer, Waltham, Mass.) at an excitation wavelength of, for example, about 480 nm and an emission wavelength of, for example, about 520 nm. The fluorescence values of the reagent blank are subtracted from that of each of the samples and the percentage of free RNA is determined by dividing the fluorescence intensity of the intact sample (without addition of Triton X-100) by the fluorescence value of the disrupted sample (caused by the addition of Triton X-100).

[4] = Residual lipid level in liver of rats (UPLC-MS quantification); assay type: in vivo; conditions: rat, liver, iv, intravenous, 48 hours, read-out: Liver level
Procedure: (§1) To pre-weighed tissues, Milli-Q water was added (900 μL water per 100 mg tissue). Tissues were homogenized using an Omni probe homogenizer until uniform. 50 μL of samples and matrix calibration standards were aliquoted into a 96-well plate. 50 μL of blank matrix for matrix blanks and control blanks were aliquoted. 400 μL IS spiking solution were manually added to all samples except matrix blanks. 400 μL of 50:50 ACN:IPA were manually added to matrix blanks. The plate was covered and the samples vortexed and centrifuged for 5 minutes at >3000 rpm. 200 μL of the samples were transferred into a clean 96-well plate for analysis. […] Detection was based on electrospray ionization (ESI) in positive mode using a Sciex API5500 Mass Spectrometer.
(§2) The expression of hEPO in rats intravenously administered a nanoparticle composition at a dose of 0.2 mpk or 2.0 mpk was measured at 6 hours. […] Liver and spleen levels represent the average values calculated for 3 rats in each group.
(§3) The expression of hEPO and lipid levels in the liver and spleen in rats intravenously administered a nanoparticle composition at a dose of 0.2 mpk was measured at various timepoints. […] Lipids were formulated according to the standard MC3 formulation described above.

[5] = Residual lipid level in spleen of rats (UPLC-MS quantification); assay type: in vivo; conditions: rat, iv, 48 hours, read-out: Spleen level
Procedure: as §1, §2, §3

Row | Compound | % Dose Remaining in Liver 6h ([1]; first column of this head) [%] | % Dose Remaining in Liver 6h ([1]; second column of this head) [%] | PDI [2] | EE (%) [3] [%] | further results
1 | CCCCCCCCC(CCCCCCCC)OC(=O)CCCCCCCN(CCO)CCCCCCCC(=O)OCC(CCCCCCC)OC (stereo not drawn) [Compound 148, Heptadecan-9-yl 8-((2-hydroxyethyl)(8-((2-methoxynonyl)oxy)-8-oxooctyl)amino)octanoate] | <1 | <1 |  |  | 
2 | CCCCCCCCCOC(=O)CCCCCCCN(CCCCCCCC(=O)OC(CCCCCCCC)CCCCCCCC)CCCNC(=S)NC [Compound 113, Heptadecan-9-yl 8-((3-(3-methylthioureido)propyl)(8-(nonyloxy)-8-oxooctyl)amino)octanoate] |  |  | 0.15 | 99 | 
3 | CCCCCCCCCOC(=O)CCCCCCCN(CCCCCCCC(=O)OC(CCCCCCCC)CCCCCCCC)CCCNc1c(N(C)C)c(=O)c1=O [Compound 169, Heptadecan-9-yl 8-((3-((2-(dimethylamino)-3,4-dioxocyclobut-1-en-1-yl)amino)propyl)(8-(nonyloxy)-8-oxooctyl)amino)octanoate] |  |  | 0.18 | 99.04 | 
4 | CCCCCCCCC(CC)OC(=O)CCCCCCCN(CCO)CCCCCCCC(=O)OC(CCCCCCCC)CCCCCCCC (stereo not drawn) [Compound 49, heptadecan-9-yl 8-((2-hydroxyethyl)(8-oxo-8-(undecan-3-yloxy)octyl)amino)octanoate] |  |  | 0.110 | 96.86 | concentration at 48 h ([4]; 0.2 mg/kg, 0.2 mpk): 6490 ng/g; concentration at 48 h ([4]; 2 mg/kg, 2 mpk): 61400 ng/g; concentration at 48 h ([5]; 0.2 mg/kg, 0.2 mpk): 0.36; concentration at 48 h ([5]; 2 mg/kg, 2 mpk): 0.37
5 | CCCCCCCCCOC(=O)CCCCCCCN(CCCCCCCC(=O)OC(CCCCCCCC)CCCCCCCC)C(C)CO (stereo not drawn) [Compound 157, Heptadecan-9-yl 8-((1-hydroxypropan-2-yl)(8-(nonyloxy)-8-oxooctyl)amino)octanoate] | <1 | <1 | 0.096 |  | 
6 | CCCC/C=C\CCC(CC/C=C\CCCC)OC(=O)CCCCCCCN(CCO)CCCCCC(=O)OCCCCCCCCCCC [Compound 61, (5Z,12Z)-heptadeca-5,12-dien-9-yl 8-((2-hydroxyethyl)(6-oxo-6-(undecyloxy)hexyl)amino)octanoate] |  |  | 0.11 | 97.2 | 
7 | CCCCCCCCCC(=O)OCCCCCCCN(CCO)CCCCCCCC(=O)OC(CCCCCCCC)CCCCCCCC [Compound 96, 7-((8-(Heptadecan-9-yloxy)-8-oxooctyl)(2-hydroxyethyl)amino)heptyl decanoate] | <1 | <1 |  |  | 
8 | CCCCCCCCCOC(=O)CCCCCCCN(CCCCCCCC(=O)OC(CCCCCCCC)CCCCCCCC)CCCNC(=O)N(C)C [Compound 110, Heptadecan-9-yl 8-((3-(3,3-dimethylureido)propyl)(8-(nonyloxy)-8-oxooctyl)amino)octanoate] |  |  | 0.13 | 97.4 | 
9 | CCCCCCCCC(CC)OC(=O)CCCN(CCO)CCCCCCCC(=O)OC(CCCCCCCC)CCCCCCCC (stereo not drawn) [Compound 72, Heptadecan-9-yl 8-((2-hydroxyethyl)(4-oxo-4-(undecan-3-yloxy)butyl)amino)octanoate] |  |  | 0.11 | 97.3 | 
10 | CCCCCCCCCOC(=O)CCCCCCCN(CCCCCCCC(=O)OC(CCCCCCCC)CCCCCCCC)CCCN1C(=O)CNC1=O [Compound 174, Heptadecan-9-yl 8-((3-(2,5-dioxoimidazolidin-1-yl)propyl)(8-(nonyloxy)-8-oxooctyl)amino)octanoate] |  |  | 0.12 | 98.52 | 
11 | CCCCCCCCC(CC)OC(=O)CCCCCN(CCO)CCCCCCCC(=O)OC(CCCCCCCC)CCCCCCCC (stereo not drawn) [Compound 75, Heptadecan-9-yl 8-((2-hydroxyethyl)(6-oxo-6-(undecan-3-yloxy)hexyl)amino)octanoate] |  |  | 0.10 | 98.1 | 
12 | CCCCCCCCCOC(=O)CCCCCCCN(CCCCCCCC(=O)OC(CCCCCCCC)CCCCCCCC)C(CO)CO [Compound 156, Heptadecan-9-yl 8-((1,3-dihydroxypropan-2-yl)(8-(nonyloxy)-8-oxooctyl)amino)octanoate] |  |  | 0.072 | 98.90 | 
13 | CCCCCCCCCOC(=O)CCCCCCCN(CCO)CCCCCCCCCC(CCCCCCCC)CCCCCCCC [Compound 153, Nonyl 8-((2-hydroxyethyl)(10-octyloctadecyl)amino)octanoate] | <1 | <1 |  |  | 
14 | CCCCCCCCCOC(=O)CCCCCCCN(CCCCCCCC(=O)OC(CCCCCCCC)CCCCCCCC)CCCN/C(=C/[N+](=O)[O-])NC [Compound 170, Heptadecan-9-yl (E)-8-((3-((1-(methylamino)-2-nitrovinyl)amino)propyl)(8-(nonyloxy)-8-oxooctyl)amino)octanoate] |  |  | 0.12 | 98.24 | 
15 | CCCCCCCCC(CCCCCCCC)OC(=O)CCCCCCCN(C)CCCCCCCCCCCC(=O)OCCCCC [Compound 150, Pentyl 12-((8-(heptadecan-9-yloxy)-8-oxooctyl)(methyl)amino)dodecanoate] | <1 | <1 |  |  | 
16 | CCCCCCCCCC(=O)OCCCCCCCN(CCO)CCCCCCCOC(=O)C(CCCCCCCC)CCCCCCCC [Compound 151, 7-((7-(Decanoyloxy)heptyl)(2-hydroxyethyl)amino)heptyl 2-octyldecanoate] | <1 | <1 |  |  | 
17 | CCCCCCCCC(CCCCCCCC)OC(=O)CCCCCCCN(CCO)CCCCCC(=O)OC(CCCCCCCC)C1CC1 (stereo not drawn) [Compound 128, Heptadecan-9-yl 8-((6-((1-cyclopropylnonyl)oxy)-6-oxohexyl)(2-hydroxyethyl)amino)octanoate] |  |  | 0.14 | 98.2 | 
